# Assay results as given in patent EP2567959B1, “6-(4-HYDROXY-PHENYL)-3-STYRYL-1H-PYRAZOLO[3,4-B]PYRIDINE-4-CARBOXYLIC ACID AMIDE DERIVATIVES AS KINASE INHIBITORS” (SANOFI, priority 2011, dated 2013).
# Target: T1, human full-length recombinant PKC βII (Homo sapiens, UniProt P05771)
# T1 construct: Active human full-length recombinant PKC βII; purchased Invitrogen GmbH, Darmstadt, Germany
# Experiment: Determination of PKC βII inhibition (Caliper mobility-shift kinase assay, phosphorylation of fluorescein peptide substrate)
# Type: biochemical
# Conditions: final compound concentration 1.14 µM (±0.15 µM); 60 min incubation at 32 °C
# Experimental: Determination of PKC βII inhibition
# PKC βII inhibition was determined according to the following protocol:
# Active human full-length recombinant PKC βII and the peptide substrate, Fluorescein-RFARKGSLRQKNV, were purchased from Invitrogen GmbH, Darmstadt, Germany. Adenosine-5'-triphosphate (ATP), bovine serum albumine (BSA), dimethylsulphoxide (DMSO), 4-(2-hydroxyethyl)piperazine-1-ethanesulfonic acid (Hepes), Triton X-100, 1,2-Dioleoyl-sn-glycerol (DAG), L-α-Phosphatidyl-L-serine (PS), calcium chloride (CaCl2), and Pluronic F-68 were purchased from Sigma-Aldrich, Munich, Germany. Magnesium chloride, 1 M sodium hydroxide solution, 1M hydrochloric acid solution and EDTA were obtained from Merck Biosciences, Darmstadt, Germany.
# Test compounds were diluted to three times the test concentration in buffer 1 (30 mM Hepes-NaOH, pH 7.4, 0.01 % Pluronic F-68 and 3 % (v/v) DMSO). The PKC βII enzyme was diluted to a concentration of 30 ng/ml in buffer 2 (30 mM Hepes-NaOH, pH 7.4, 15 mM MgCl2,150 µM CaCl2, 150 µg/ml PS, 60 µg/ml DAG, and 0.045 % (w/v) Triton X-100). The peptide substrate and ATP were diluted to concentrations of 3 µM and 120 µM, respectively, in buffer 2. Two µl of the compound solution were mixed with 2 µl of the diluted enzyme in a 384-well small volume microtiter plate (Greiner, Bio-One, Frickenhausen, Germany), and the kinase reaction was initiated by addition of 2 µl of the solution containing peptide substrate and ATP. After 60 min incubation at 32 °C, the reaction was stopped by addition of 20 µl of a solution containing 130 mM Hepes-NaOH, pH 7.4, 0.0195 % (v/v) Brij-35, 6.5 mM EDTA, 0.13 % chip coating reagent 3 (Caliper Lifescience Inc, Hopkinton, MA) and 6.5 % (v/v) DMSO. Phosphorylation of the substrate peptide was then detected on a Caliper 3000 instrument essentially as described by Pommereau et al (J. Biomol. Screening 2004, 9(5), 409-416). Separation conditions were as follows: Pressure -0.8 psi, upstream voltage - 3000 V, downstream voltage -800 V. Positive controls (buffer 1 instead of compound) and negative controls (buffer 1 instead of compound and buffer 2 instead of kinase solution) were run in parallel on each plate. Fractional turnover (R) was determined as the height of the peak of the phosphorylated peptide product divided by the sum of the unphosphorylated substrate and phosphorylated product peak heights. Percent-inhibition values for the test compounds were determined using the formula % Inhibition = 100*(1-(Rcompound-Rnegative control)/(Rpositive control-Rnegative control). [formula]
# In the following table % inhibition values observed with example compounds at a final concentration of 1.14 µM (±0.15 µM) are listed: […]
# T1 sequence (P05771 1-673 isoform P05771-2): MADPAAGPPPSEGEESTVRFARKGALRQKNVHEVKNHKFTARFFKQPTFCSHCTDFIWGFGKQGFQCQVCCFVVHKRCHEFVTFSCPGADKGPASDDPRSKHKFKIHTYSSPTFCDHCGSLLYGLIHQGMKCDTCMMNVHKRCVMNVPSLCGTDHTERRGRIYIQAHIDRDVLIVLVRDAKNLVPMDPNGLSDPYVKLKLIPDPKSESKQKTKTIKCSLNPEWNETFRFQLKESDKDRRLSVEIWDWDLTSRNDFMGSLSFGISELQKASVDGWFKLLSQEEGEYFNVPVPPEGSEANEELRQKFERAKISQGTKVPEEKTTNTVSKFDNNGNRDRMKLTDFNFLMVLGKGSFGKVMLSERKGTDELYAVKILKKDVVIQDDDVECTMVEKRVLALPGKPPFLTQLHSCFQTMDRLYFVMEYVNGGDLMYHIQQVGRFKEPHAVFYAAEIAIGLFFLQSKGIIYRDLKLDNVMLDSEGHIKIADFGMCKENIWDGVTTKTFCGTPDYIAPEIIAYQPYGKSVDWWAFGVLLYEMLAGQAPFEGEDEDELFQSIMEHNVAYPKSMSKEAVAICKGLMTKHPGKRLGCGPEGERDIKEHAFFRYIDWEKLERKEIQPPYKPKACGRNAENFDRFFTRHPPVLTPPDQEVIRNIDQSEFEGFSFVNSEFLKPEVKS
row,SMILES,inhibition at 1.14 µM [%]
1,"Cc1ccc(C)c(/C=C/c2n[nH]c3nc(-c4ccc(O)cc4)cc(C(=O)N4CCNCC4)c23)c1 [Example 50, [3-[(E)-2-(2,5-Dimethylphenyl)-vinyl]-6-(4-hydroxy-phenyl)-1H-pyrazolo[3,4-b]pyridin-4-yl]-piperazin-1-yl-methanone]",92
2,"CC(C)c1ccc(/C=C/c2n[nH]c3nc(-c4ccc(O)cc4)cc(C(=O)N4CCNCC4)c23)cc1 [Example 51, {6-(4-Hydroxy-phenyl)-3-[(E)-2-(4-isopropyl-phenyl)-vinyl]-1H-pyrazolo[3,4-b]pyridin-4-yl}-piperazin-1-yl-methanone]",94
3,"O=C(c1cc(-c2ccc(O)cc2)nc2[nH]nc(/C=C/c3ccc(F)cc3Cl)c12)N1CCNCC1 [Example 52, [3-[(E)-2-(2-Chloro-4-fluorophenyl)-vinyl]-6-(4-hydroxy-phenyl)-1H-pyrazolo[3,4-b]pyridin-4-yl]-piperazin-1-yl-methanone]",91
4,"CCc1ccc(/C=C/c2n[nH]c3nc(-c4ccc(O)cc4)cc(C(=O)N4CCNCC4)c23)cc1 [Example 53, [3-[(E)-2-(4-Ethyl-phenyl)-vinyl]-6-(4-hydroxy-phenyl)-1H-pyrazolo[3,4-b]pyridin-4-yl]-piperazin-1-yl-methanone]",95
5,"CC(C)(C)c1ccc(/C=C/c2n[nH]c3nc(-c4ccc(O)cc4)cc(C(=O)N4CCNCC4)c23)cc1 [Example 54, [3-[(E)-2-(4-tert-Butyl-phenyl)-vinyl]-6-(4-hydroxy-phenyl)-1H-pyrazolo[3,4-b]pyridin-4-yl]-piperazin-1-yl-methanone]",95
6,"Cc1ccc(/C=C/c2n[nH]c3nc(-c4ccc(O)cc4)cc(C(=O)N4CCNCC4)c23)cc1F [Example 55, [3-[(E)-2-(3-Fluoro-4-methyl-phenyl)-vinyl]-6-(4-hydroxy-phenyl)-1H-pyrazolo[3,4-b]pyridin-4-yl]-piperazin-1-yl-methanone]",76
7,"COc1cccc(/C=C/c2n[nH]c3nc(-c4ccc(O)cc4)cc(C(=O)N4CCNCC4)c23)c1 [Example 56, {6-(4-Hydroxy-phenyl)-3-[(E)-2-(3-methoxyphenyl)-vinyl]-1H-pyrazolo[3,4-b]pyridin-4-yl}-piperazin-1-yl-methanone]",100
8,"CC(=O)c1ccc(/C=C/c2n[nH]c3nc(-c4ccc(O)cc4)cc(C(=O)N4CCNCC4)c23)cc1 [Example 57, 1-(4-{(E)-2-[6-(4-Hydroxy-phenyl)-4-(piperazine-1-carbonyl)-1H-pyrazolo[3,4-b]pyridin-3-yl]-vinyl}-phenyl)-ethanone]",98
9,"O=C(c1cc(-c2ccc(O)cc2)nc2[nH]nc(/C=C/c3ccc(OC(F)(F)F)cc3)c12)N1CCNCC1 [Example 58, {6-(4-Hydroxyphenyl)-3-[(E)-2-(4-trifluorome-thoxy-phenyl)-vinyl]-1H-pyrazo-lo[3,4-b]pyridin-4-yl}-piperazin-1-yl-methanone]",89
10,"O=C(c1cc(-c2ccc(O)cc2)nc2[nH]nc(/C=C/c3ccc(F)c(F)c3)c12)N1CCNCC1 [Example 59, [3-[(E)-2-(3,4-Difluoro-phenyl)-vinyl]-6-(4-hydroxy-phenyl)-1H-pyrazolo[3,4-b]pyridin-4-yl]-piperazin-1-yl-methanone]",97
11,"COc1ccccc1/C=C/c1n[nH]c2nc(-c3ccc(O)cc3)cc(C(=O)N3CCNCC3)c12 [Example 60, {6-(4-hydroxy-phenyl)-3-[(E)-2-(2-methoxy-phenyl)-vinyl]-1H-pyrazolo[3,4-b]pyridin-4-yl}-piperazin-1-yl-methanone]",98
12,"Cc1cc(F)ccc1/C=C/c1n[nH]c2nc(-c3ccc(O)cc3)cc(C(=O)N3CCNCC3)c12 [Example 61, [3-[(E)-2-(4-Fluoro-2-methyl-phenyl)-vinyl]-6-(4-hydroxy-phenyl)-1H-pyrazolo[3,4-b]pyridin-4-yl]-piperazin-1-yl-methanone]",86
13,"COc1cc(/C=C/c2n[nH]c3nc(-c4ccc(O)cc4)cc(C(=O)N4CCNCC4)c23)cc(OC)c1OC [Example 62, {6-(4-hydroxy-phenyl)-3-[(E)-2-(3,4,5-trimethoxy-phenyl)-vinyl]-1H-pyrazolo[3,4-b]pyridin-4-yl}-piperazin-1-yl-methanone]",98
14,"Cc1ccc(/C=C/c2n[nH]c3nc(-c4ccc(O)cc4)cc(C(=O)N4CCNCC4)c23)c(F)c1 [Example 63, [3-[(E)-2-(2-Fluoro-4-methyl-phenyl)-vinyl]-6-(4-hydroxy-phenyl)-1H-pyrazolo[3,4-b]pyridin-4-yl]-piperazin-1-yl-methanone]",97
15,"O=C(c1cc(-c2ccc(O)cc2)nc2[nH]nc(/C=C/c3ccc4c(c3)CCO4)c12)N1CCNCC1 [Example 64, [3-[(E)-2-(2,3-Dihydrobenzofuran-5-yl)-vinyl]-6-(4-hydroxy-phenyl)-1H-pyrazolo[3,4-b]pyridin-4-yl]-piperazin-1-yl-methanone]",99
16,"O=C(c1cc(-c2ccc(O)cc2)nc2[nH]nc(/C=C/c3ccc4c(c3)OCO4)c12)N1CCNCC1 [Example 65, [3-((E)-2-Benzo[1,3]dioxol-5-yl-vinyl)-6-(4-hydroxy-phenyl)-1H-pyrazolo[3,4-b]pyridin-4-yl]-piperazin-1-yl-methanone]",97
17,"CN(C)C(=O)c1ccc(/C=C/c2n[nH]c3nc(-c4ccc(O)cc4)cc(C(=O)N4CCNCC4)c23)cc1 [Example 66, 4-{(E)-2-[6-(4-Hydroxy-phenyl)-4-(piperazine-1-carbonyl)-1H-pyrazolo[3,4-b]pyridin-3-yl]-vinyl}-N,N-dimethyl-benzamide]",99
18,"CCOc1ccc(/C=C/c2n[nH]c3nc(-c4ccc(O)cc4)cc(C(=O)N4CCNCC4)c23)cc1 [Example 67, [3-[(E)-2-(4-Ethoxy-phenyl)-vinyl]-6-(4-hydroxy-phenyl)-1 H-pyrazolo[3,4-b]pyridin-4-yl]-piperazin-1-yl-methanone]",99
19,"O=C(c1cc(-c2ccc(O)cc2)nc2[nH]nc(/C=C/c3ccccc3C(F)(F)F)c12)N1CCNCC1 [Example 68, {6-(4-Hydroxy-phenyl)-3-[(E)-2-(2-trifluoromethyl-phenyl)-vinyl]-1H-pyrazolo[3,4-b]pyridin-4-yl}-piperazin-1-yl-methanone]",60
20,"Cc1ccccc1/C=C/c1n[nH]c2nc(-c3ccc(O)cc3)cc(C(=O)N3CCNCC3)c12 [Example 69, [6-(4-Hydroxy-phenyl)-3-((E)-2-o-tolyl-vinyl)-1H-pyrazolo[3,4-b]pyridin-4-yl]-piperazin-1-yl-methanone]",94
21,"O=C(c1cc(-c2ccc(O)cc2)nc2[nH]nc(/C=C/c3cc(Cl)cc(Cl)c3)c12)N1CCNCC1 [Example 70, [3-[(E)-2-(3,5-Dichloro-phenyl)-vinyl]-6-(4-hydroxy-phenyl)-1H-pyrazolo[3,4-b]pyridin-4-yl]-piperazin-1-yl-methanone]",98
22,"O=C(c1cc(-c2ccc(O)cc2)nc2[nH]nc(/C=C/c3cccc(F)c3)c12)N1CCNCC1 [Example 71, [3-[(E)-2-(3-Fluoro-phenyl)-vinyl]-6-(4-hydroxy-phenyl)-1H-pyrazolo[3,4-b]pyridin-4-yl]-piperazin-1-yl-methanone]",96
23,"O=C(c1cc(-c2ccc(O)cc2)nc2[nH]nc(/C=C/c3ccccc3F)c12)N1CCNCC1 [Example 72, [3-[(E)-2-(2-Fluoro-phenyl)-vinyl]-6-(4-hydroxy-phenyl)-1H-pyrazolo[3,4-b]pyridin-4-yl]-piperazin-1-yl-methanone]",99
24,"COc1ccc(/C=C/c2n[nH]c3nc(-c4ccc(O)cc4)cc(C(=O)N4CCNCC4)c23)cc1C [Example 73, {6-(4-Hydroxy-phenyl)-3-[(E)-2-(4-methoxy-3-methyl-phenyl)-vinyl]-1H-pyrazolo[3,4-b]pyridin-4-yl}-piperazin-1-yl-methanone]",98
25,"CN(C)C(=O)N1CCN(C(=O)c2cc(-c3ccc(O)cc3)nc3[nH]nc(/C=C/c4ccccc4)c23)CC1 [Example 74, 4-[6-(4-Hydroxy-phenyl)-3-((E)-styryl)-1H-pyrazolo[3,4-b]pyridine-4-carbonyl]-piperazine-1-carboxylic acid dimethylamide]",27
